Experimental data published in patent US20030055023A1, “Formulations containing etomidate and a sulfoalkyl ether cyclodextrin” (priority 2001, published 2003).
≈ marks a conversion by molar mass, not a printed value.

Assay: Solubility of etomidate
Type: physicochemical
Conditions: aqueous buffer
Source text: . […] . No. 4,289,783 to Mesens).
By “therapeutic agent/SAE-CD complex” is generally meant a clathrate or inclusion complex of a sulfoalkyl ether cyclodextrin derivative of the formula (1) and a therapeutic agent. By “complexed” is meant “being part of a clathrate or inclusion complex with”, i.e., a complexed therapeutic agent is part of a clathrate or inclusion complex with a sulfoalkyl ether cyclodextrin derivative. By “major portion” is meant at least about 50% by weight of the therapeutic compound. Thus, a formulation according to the present invention will contain a therapeutic agent of which more than about 50% by weight is complexed with an SAE-CD. In various embodiments, preferably greater than 60% by weight, more preferably greater than 75% by weight, even more preferably greater than 90% by weight, and most preferably greater than 95% by weight of the therapeutic agent will remain complexed with an SAE-CD while in the pharmaceutical formulation. The actual percent of drug that is complexed will vary according to the complexation equilibrium constant characterizing the complexation of a specific SAE- CD to a specific drug. […] . In this case the amount complexed is only 75%. Generally, the greater the percentage of drug that is complexed, the more effectively the SAE-CD will reduce pain on injection. […]

SMILES: CCOC(=O)c1cncn1[C@H](C)c1ccccc1 [Etomidate, (R)-(+)ethyl 1-(1-phenylethyl)-1H-imidazole-5-carboxylate]
- solubility (0.025 M phosphate buffer at pH 7.0): ~450 µg/mL (≈ 1840 µM)
- solubility (25mM phosphate buffer, pH 7.4): 450 µg/mL (≈ 1840 µM)
